Source: patent US11666656B2, “Polymeric conjugates and uses thereof” (Ramot at Tel-Aviv University Ltd., priority 2016, dated 2023)

Assays:
131/4-5B1 melanoma cells = test: Proliferation of 131/4-5B1 melanoma cells (viable cell count); format: cell-based; conditions: Homo sapiens; 131/4-5B1 cells, 72 hours incubation
Procedure: 131/4-5B1 (human melanoma brain-metastasis cell line that was obtained from Dr. Kerbel' Lab) (15,000/well) were plated onto 24-well culture in RPMI medium supplemented with 10% FBS and incubated for 24 hours (37° C.; 5% CO2). The medium was then replaced with RPMI supplemented with 10% FBS. Cells were exposed to free selumetinib, free amine-modified dabrafenib (Scheme 8) or both, at a SLM-DBF mol ratio of 10:1 at serial dilutions. Number of viable cells was counted by a Z1 Coulter Counter® Cell and Particle Counter (Beckman Coulter®) following 72 hours incubation.
Inhibition of 131/4-5B1, human melanoma brain-metastasis cells by free selumetinib (SLM), free diol-modified dabrafenib (DBFdiol; see, Scheme 11), a combination of the free drugs at 3:1 SLM:DBFdiol mol ratio, PGA-SLM (see, Scheme 19), PGA-DBFdiol (see, Scheme 11), a combination of PGA-SLM and PGA-DBFdiol, and PGA-SLM-DBFdiol conjugate (see, Scheme 23) was determined.
131/4-5B1 cells (15,000/well) were plated onto 24-well culture in RPMI medium supplemented with 10% FBS and incubated for 24 hours (37° C.; 5% CO2). […] Cells were exposed to PGA-SLM conjugate, PGA-DBFdiol conjugate, to the combination of both at a SLM-DBF mol ratio of 10:1 and to the combined PGA-SLM-DBFdiol conjugate, calculated according to the SLM loading and assuming 10:1 mol ratio between SLM and DBF, at serial dilutions. […]

mutant BRAF = conditions: cell lines; cited from earlier work
[1] = tested on: MEK and ERK phosphorylation; conditions: BRAF mutated cell lines; cited from earlier work
melanoma xenografts = conditions: cited from earlier work

| IC50 (131/4-5B1 melanoma cells) | Structure (SMILES) | selectivity for mutant BRAF over wild-type BRAF (mutant BRAF) | inhibition of MEK and ERK phosphorylation [1] | tumor regression (melanoma xenografts) |
| --- | --- | --- | --- | --- |
| 70 nM | Cn1cnc2c(F)c(Nc3ccc(Br)cc3Cl)c(C(=O)NOCCO)cc21 [SLM, Selumetinib] |  |  |  |
|  | CC(C)(C)c1nc(-c2cccc(NS(=O)(=O)c3c(F)cccc3F)c2F)c(-c2ccnc(N)n2)s1 [Dabrafenib] | more than 100 fold | dose-dependent inhibition | induces tumor regression |
